Laboratory results as given in patent US8741929B2, “Methods using 3-(4-amino-1-oxo-1,3-dihydro-isoindol-2-yl)-piperidine-2,6-dione for treatment of mantle cell lymphomas” (Celgene Corporation, priority 2006, dated 2014).
Where “and” joins values, the source holds several entries; their conditions need not be identical. Equal values may be shown once.

How the values were obtained:
[1] = test system: relapsed and refractory aggressive non-Hodgkin's lymphoma (NHL); experiment: Phase II study of oral lenalidomide monotherapy in patients; format: in vivo, human
Description: A multi-center, open-label, Phase II study was conducted in patients with relapsed and refractory aggressive non-Hodgkin's lymphoma (NHL). […] Patients in the study received lenalidomide in an amount of 25mg orally once daily for days one to 21 in a 28-day cycle and continued therapy for 52 weeks as tolerated or until disease progression.
Twenty-five patients age 45 to 80 years (median age 63), with relapsed and refractory aggressive NHL, and who had received a median of 2.5 prior treatments (range: 1-6 prior treatments), were administered with lenalidomide in an amount of 25 mg orally once daily for 21 days in the treatment cycle. Sixteen patients with aggressive NHL were evaluable for tumour assessment. Of the 16 patients, eight had diffuse large cell lymphoma, three had mantle cell lymphoma, two patients had follicular lymphoma, one had transformed lymphoma, and two had aggressive lymphoma of unknown histology.

[2] = test system: relapsed or refractory mantle cell lymphoma (MCL)
Description: A single-center, open label, phase I/II study was conducted to determine the maximum tolerated dose (MTD) and to evaluate the efficacy of 3-(4-amino-1-oxo-1,3-dihydro-isoindol-2-yl)-piperidin-2,6-dione (lenalidomide or Revlimid®) in combination with rituximab for relapsed or refractory mantle cell lymphoma (MCL). Patients with one to four lines of prior therapy were eligible. Patients with prior treatment using thalidomide or rituximab, regardless of resistance, were eligible. […] A standard phase I dose escalation was used to determine MTD with dose levels at 10 mg, 15 mg, 20 mg, and 25 mg of Revlimid®. Dose-limiting toxicity (DLT) was defined as grade 3 or 4 non-hematologic or grade 4 hematologic toxicity during the first cycle.
Each cohort had 3 patients. […] The number of cycles given ranged from one to five cycles.

[3] = 25 mg daily, 21/28 days, 16 evaluable patients
[4] = 25 mg orally once daily days 1-21 of 28-day cycle, 16 evaluable patients
[5] = first cycle, + rituximab, number of patients/events

Nc1cccc2c1CN(C1CCC(=O)NC1=O)C2=O (centres unmarked) [Revlimid®, 3-(4-amino-1-oxo-1,3-dihydro-isoindol-2-yl)-piperidine-2,6-dione]
complete response [1, 3]: One
partial responses [1, 3]: four
stable disease [1, 3]: Four
Grade 4 adverse reaction ([1]; 25 mg daily, 21/28 days, of 22 patients): three
Grade 3 and 4 adverse events ([1]; 25 mg daily, 21/28 days, predominately haematological and Grade 3): ten of 22
objective responses [1, 4]: five
objective responses (rate) [1, 4]: 31 per cent
disease progression ([1]; after a median follow-up of two months (range one to seven months)): Seven
progression free survival ([1]; one patient with diffuse large cell lymphoma, complete response): more than 180 days
progression free survival ([1]; one patient with follicular lymphoma, partial response): more than 55 days
progression free survival ([1]; one patient with mantle cell lymphoma, partial response): more than 57 days
progression free survival ([1]; single patients with diffuse large cell lymphoma, partial response, listed as lenalidomide): 135 days and 242 days
stable disease ([2]; at cycle 3 and cycle 5, respectively, + rituximab, seven evaluable): Two
maximum tolerated dose (MTD) ([2]; dose levels up to 20 mg Revlimid + rituximab 375 mg/m^2 weekly): the MTD has not been reached
grade 3 toxicity (thrombocytopenia) beyond the first cycle ([2]; during cycle 2, + rituximab, number of events): 1
grade 2 anemia ([2]; first cycle, + rituximab): one
Grade 1 hematologic events: anemia [2, 5]: 1
Grade 1 hematologic events: leukopenia [2, 5]: 3
Grade 1 hematologic events: thrombocytopenia [2, 5]: 2
Grade 1 non-hematologic toxic events: fatigue [2, 5]: 4
Grade 1 non-hematologic toxic events: myalgias [2, 5]: 2
Grade 1 non-hematologic toxic events: pruritis [2, 5]: 3
Grade 1 non-hematologic toxic events: stomatitis [2, 5]: 3
Grade 2 non-hematologic toxic events: myalgias [2, 5]: 2
Grade 2 non-hematologic toxic events: rash [2, 5]: 2
study conclusion on efficacy ([2]; particularly relapsed or refractory mantle cell lymphoma): effective in treating mantle cell lymphoma
